#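 Exposure lasted 48 hours, with cells grown in 96-well plates and compounds tested at five concentrations. GI50 = concentration required for 50% inhibition of growth. TGI: total growth inhibition.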
# What was measured:
# Assay in all cases: inhibition of tumour cell growth, NCI panel, 48 h
# [1] = test system: UACC-62 melanoma
# [2] = test system: MALME-3M melanoma
# [3] = test system: SK-OV-3 ovarian
# [4] = test system: A498 renal
# [5] = test system: K-562 leukemia
# [6] = test system: SF-539 CNS
# [7] = test system: SK-MEL-5 melanoma
# [8] = test system: MDA-MB-435
# [9] = test system: M14 melanoma
# [10] = test system: CAKI-1 renal
# [11] = test system: SK-MEL-2 melanoma
# [12] = test system: NCI-H226 lung
# [13] = test system: DU-145 prostate
# [14] = test system: SNB-19 CNS
# [15] = test system: HS 578T breast
# [16] = test system: A549 NSCLC
# [17] = test system: OVCAR-5 ovarian
# [18] = test system: U251 CNS
# [19] = test system: HOP-62 NSCLC
# [20] = test system: SNB-75 CNS
# [21] = test system: NCI-H460 lung
# [22] = test system: SF-295 CNS
# [23] = test system: KM12 colon
# [24] = test system: NCI/ADR-RES ovarian
# [25] = test system: OVCAR-4 ovarian
# [26] = test system: MCF7 breast
# [27] = test system: HT29 colon
# [28] = test system: HL-60(TB) leukemia
# [29] = test system: BT-549 breast
# [30] = test system: RXF 393 renal
# [31] = test system: MOLT-4 leukemia
# [32] = test system: SR leukemia
# [33] = test system: PC-3 prostate
# [34] = test system: OVCAR-3 ovarian
# [35] = test system: TK-10 renal
# [36] = test system: HCT-15 colon
# [37] = test system: UACC-257 melanoma
# [38] = test system: HCC-2998 colon
# [39] = test system: RPMI-8226 leukemia
# [40] = test system: EKVX NSCLC
# [41] = test system: IGROV1 ovarian
# [42] = test system: HOP-92 NSCLC
# [43] = test system: SW-620 colon
# [44] = test system: UO-31 renal
# [45] = test system: NCI-H23 lung
# [46] = test system: SK-MEL-28 melanoma
compound,measurement,setting,value
C=C(C)[C@@H]1CC[C@]2(C)[C@H](CC=C3[C@@H]4CC(C)(C)CC[C@]4(CO)CC[C@]32C)[C@@]1(C)CCCN,GI50,[1],1.68 µM
same,TGI,[1],3.05 µM
same,GI50,[2],1.55 µM
same,TGI,[2],2.96 µM
same,GI50,[3],1.88 µM
same,TGI,[3],3.33 µM
same,GI50,[4],1.49 µM
same,TGI,[4],2.81 µM
same,GI50,[5],2.17 µM
same,TGI,[5],8.26 µM
same,GI50,[6],1.65 µM
same,TGI,[6],3.02 µM
same,GI50,[7],1.68 µM
same,TGI,[7],3.05 µM
same,GI50,[8],1.62 µM
same,TGI,[8],2.98 µM
same,GI50,[9],1.65 µM
same,TGI,[9],3.1 µM
same,GI50,[10],1.73 µM
same,TGI,[10],3.1 µM
same,GI50,[11],1.98 µM
same,TGI,[11],3.58 µM
same,GI50,[12],5.31 µM
same,TGI,[12],27.7 µM
C#CCn1c(=O)c(I)cn(/C(=C\C(=O)OCC)C(=O)OCC)c1=O,TGI,[1],30.6 µM
same,TGI,[13],31.3 µM
same,TGI,[14],64 µM
same,TGI,[15],> 100 µM
same,TGI,[16],> 100 µM
same,TGI,[3],31.8 µM
same,TGI,[4],31.9 µM
same,TGI,[6],33.4 µM
same,TGI,[17],40.2 µM
same,TGI,[8],30.9 µM
same,TGI,[18],29.1 µM
same,TGI,[19],33.6 µM
same,TGI,[20],30.9 µM
same,TGI,[21],39.9 µM
same,TGI,[11],37.2 µM
same,TGI,[12],38.2 µM
same,TGI,[22],36.8 µM
same,TGI,[23],31.7 µM
same,TGI,[24],65.1 µM
CSc1n[nH]c2c1c(C)nn2-c1ccccc1,TGI,[25],> 100 µM
same,TGI,[26],> 100 µM
same,TGI,[27],> 100 µM
same,TGI,[28],> 100 µM
same,TGI,[1],> 100 µM
same,TGI,[29],> 100 µM
same,TGI,[14],> 100 µM
same,TGI,[16],> 100 µM
same,TGI,[3],> 100 µM
same,TGI,[30],> 100 µM
same,TGI,[31],> 100 µM
same,TGI,[5],> 100 µM
same,TGI,[6],> 100 µM
same,TGI,[17],> 100 µM
same,TGI,[7],> 100 µM
same,TGI,[32],> 100 µM
same,TGI,[8],> 100 µM
same,TGI,[33],> 100 µM
same,TGI,[34],> 100 µM
same,TGI,[35],> 100 µM
same,TGI,[36],> 100 µM
same,TGI,[9],> 100 µM
same,TGI,[37],> 100 µM
same,TGI,[38],> 100 µM
same,TGI,[18],> 100 µM
same,TGI,[39],> 100 µM
same,TGI,[40],> 100 µM
same,TGI,[41],> 100 µM
same,TGI,[21],> 100 µM
same,TGI,[42],> 100 µM
same,TGI,[11],> 100 µM
same,TGI,[12],> 100 µM
same,TGI,[43],> 100 µM
same,TGI,[44],> 100 µM
same,TGI,[45],> 100 µM
same,TGI,[46],> 100 µM
